Laboratory results: US12089591B2 (priority 2005, dated 2024)
Values joined by “and” are separate entries in the source; they are usually repeats but may differ in a detail not shown here. Equal entries are not always repeated. Where two headings read alike, the source gives them in different places.

Test system: ROUNDUP READY FLEX cotton
[1] = Table M3a, […], glyphosate 1260 g/ha, PMIDA 3.95 g/ha
[2] = Table M3a, […], glyphosate 2520 g/ha, PMIDA 7.90 g/ha
[3] = Table M3a, […], glyphosate 5040 g/ha, PMIDA 15.8 g/ha
[4] = Table D1a Study 3, glyphosate:dye 100:1, glyphosate 2520 g/ha, PMIDA 11.9 g/ha
[5] = Table D1a Study 3, glyphosate:dye 100:1, glyphosate 5040 g/ha, PMIDA 23.9 g/ha
[6] = Table M1a, […], glyphosate 2520 g/ha, PMIDA 11.9 g/ha, control = no additive
[7] = Table M1a, […], glyphosate 5040 g/ha, PMIDA 23.9 g/ha, control = no additive
[8] = Table H2a, […], glyphosate 2520 g/ha, PMIDA 11.9 g/ha
[9] = Table H2a, […], glyphosate 5040 g/ha, PMIDA 23.9 g/ha
[10] = Table AO1a, […], glyphosate 2520 g/ha, PMIDA 11.9 g/ha
[11] = Table AO1a, […], glyphosate 5040 g/ha, PMIDA 23.9 g/ha
[12] = Table D1a Study 2, glyphosate:dye 10:1, glyphosate 2520 g/ha, PMIDA 11.9 g/ha
[13] = Table D1a Study 2, glyphosate:dye 10:1, glyphosate 5040 g/ha, PMIDA 23.9 g/ha
[14] = Table D1a Study 2, glyphosate:dye 100:1, glyphosate 2520 g/ha, PMIDA 11.9 g/ha
[15] = Table D1a Study 2, glyphosate:dye 100:1, glyphosate 5040 g/ha, PMIDA 23.9 g/ha
[16] = Table D1a Study 2, glyphosate:dye 1000:1, glyphosate 2520 g/ha, PMIDA 11.9 g/ha
[17] = Table D1a Study 2, glyphosate:dye 1000:1, glyphosate 5040 g/ha, PMIDA 23.9 g/ha

O=C([O-])CN(CCN(CC(=O)[O-])CC(=O)[O-])CC(=O)[O-].[Fe+3].[Na+] [Iron + EDTA, iron(III) EDTA sodium salt hydrate]
Necrosis Reduction Relative to Control [1]: 100% | Necrosis Reduction Relative to Control [2]: 68% | Necrosis Reduction Relative to Control [3]: 45% | reduction in necrosis, comparison of iron sources (in words) (in vivo): significantly less effective

CCN(Cc1cccc(S(=O)(=O)[O-])c1)c1ccc(C(=C2C=CC(=[N+](CC)Cc3cccc(S(=O)(=O)[O-])c3)C=C2)c2ccc(O)cc2S(=O)(=O)[O-])cc1.[Na+].[Na+] [Fast Green FCF]
Necrosis Reduction Relative to Coontrol [4]: 2% | Necrosis Reduction Relative to Coontrol [5]: 0%

CC(O)CC(C)(C)O (stereo not shown) [2-methyl-2,4-pentanediol]
decrease of necrosis (in words) (in vivo): significantly decreased necrosis

NC(N)=O [urea]
Necrosis Reduction Relative to Control (Table H1a Study 2, glycerin 4% v/v or urea 8% v/v, glyphosate 2520 g/ha, PMIDA 11.9 g/ha): 36% | Necrosis Reduction Relative to Control (Table H1a Study 2, glycerin 4% v/v or urea 8% v/v, glyphosate 5040 g/ha, PMIDA 23.9 g/ha): 13% | reduction of necrosis (in words) (in vivo): significantly reduced necrosis

O=C(O)CN(CC(=O)O)CP(=O)(O)O [PMIDA, N-(phosphonomethyl)iminodiacetic acid]
Maximum necrosis (plateau) (Example 1, highest application rate and higher levels of PMIDA): 80-85%

Zinc sulfate heptahydrate
effect of metal salt on necrosis (in words) (in vivo): significantly reduce necrosis

Nc1cc(S(=O)(=O)[O-])cc2cc(S(=O)(=O)[O-])c(N=Nc3ccccc3)c(O)c12.[Na+].[Na+] [FD&C Red #33]
Necrosis Reduction Relative to Coontrol [4]: 6% | Necrosis Reduction Relative to Coontrol [5]: 0%

OCCOCCO [Diethylene glycol]
decrease of necrosis (in words) (in vivo): significantly decreased necrosis

O=[N+]([O-])[O-].O=[N+]([O-])[O-].[Cu+2] [Cupric Nitrate, Cupric Nitrate (2.1) hydrate]
Necrosis Reduction Relative to Control [6]: 92% | Necrosis Reduction Relative to Control [7]: 68%

CCN(Cc1cccc(S(=O)(=O)[O-])c1)c1ccc(C(=C2C=CC(=[N+](C)C)C=C2)c2ccc(N(CC)Cc3cccc(S(=O)(=O)O)c3)cc2)cc1 [FD&C Violet #1]
Necrosis Reduction Relative to Coontrol [4]: 37% | Necrosis Reduction Relative to Coontrol [5]: 0%

[Cl][Fe]([Cl])[Cl] [Ferric chloride]
Necrosis Reduction Relative to Control [6]: 100% | Necrosis Reduction Relative to Control [7]: 97%

O=C([O-])CC(O)(CC(=O)[O-])C(=O)[O-].[Fe+3] [Iron citrate, iron(III) citrate]
Necrosis Reduction Relative to Control [1]: 100% | Necrosis Reduction Relative to Control [2]: 97% | Necrosis Reduction Relative to Control [3]: 75% | reduction in necrosis, comparison of iron sources (in words) (in vivo): no significant difference

polyethylene glycol 200
decrease of necrosis (in words) (in vivo): significantly decreased necrosis

CCC(CO)(CO)CO [trimethylol-propane]
Necrosis Reduction Relative to Control [8]: 0% | Necrosis Reduction Relative to Control [9]: 0%

COc1ccc(O)c(C(C)(C)C)c1 [butylated hydroxy anisole, butylated hydroxyanisole]
Necrosis Reduction Relative to Control [10]: 80% | Necrosis Reduction Relative to Control [11]: 29%

O=S([O-])[O-].[Na+].[Na+] [Sodium sulfite, sodium sulfite]
Necrosis Reduction Relative to Control [10]: 39% | Necrosis Reduction Relative to Control [11]: 0%

CC(O)C#CC(C)O (stereo not shown) [3-hexyne-2,5-diol]
decrease of necrosis (in words) (in vivo): significantly decreased necrosis

OCC(O)CO [glycerin]
Necrosis Reduction Relative to Control (Table H1a Study 1, additive 2% v/v, glyphosate 2520 g/ha, PMIDA 11.9 g/ha): 12% | Necrosis Reduction Relative to Control (Table H1a Study 1, additive 2% v/v, glyphosate 5040 g/ha, PMIDA 23.9 g/ha): 14% | Necrosis Reduction Relative to Control (Table H1a Study 1, additive 4% v/v, glyphosate 2520 g/ha, PMIDA 11.9 g/ha): 45% | Necrosis Reduction Relative to Control (Table H1a Study 1, additive 4% v/v, glyphosate 5040 g/ha, PMIDA 23.9 g/ha): 41% | reduction of necrosis (in words) (in vivo): significantly reduced necrosis

O=C([O-])c1nn(-c2ccc(S(=O)(=O)[O-])cc2)c(O)c1N=Nc1ccc(S(=O)(=O)[O-])cc1.[Na+].[Na+].[Na+] [FD&C Yellow #5, 3-carboxy-5-hydroxy-1-p-sulfophenyl-4-p-sulfophenylazopyrazole trisodium salt]
Necrosis Reduction Relative to Coontrol (Table D1a Study 1, glyphosate:dye 10:1, glyphosate 2520 g/ha, PMIDA 11.9 g/ha): 96% | Necrosis Reduction Relative to Coontrol (Table D1a Study 1, glyphosate:dye 10:1, glyphosate 5040 g/ha, PMIDA 23.9 g/ha): 55% | Necrosis Reduction Relative to Coontrol [12]: 84% | % necrosis (2 DAT) [13]: 38% | Necrosis Reduction Relative to Coontrol [13]: 51% | % necrosis (2 DAT) [14]: 31% | Necrosis Reduction Relative to Coontrol [14]: 18% | % necrosis (2 DAT) [15]: 55% | Necrosis Reduction Relative to Coontrol [15]: 29% | % necrosis (2 DAT) [16]: 28% | Necrosis Reduction Relative to Coontrol [16]: 26% | % necrosis (2 DAT) [17]: 69% | Necrosis Reduction Relative to Coontrol [17]: 12% | decrease of PMIDA-induced necrosis by dye (in words) (dye as safening agent in glyphosate spray solutions): significantly decrease

Aluminum chloride hexahydrate
Necrosis Reduction Relative to Control (in vivo): 95% and 71%

[Ca+2].[Cl-].[Cl-] [Calcium chloride, Calcium chloride (anhydrous)]
Necrosis Reduction Relative to Control [6]: 32% | Necrosis Reduction Relative to Control [7]: 6%

polyethylene glycol 900
decrease of necrosis (in words) (in vivo): significantly decreased necrosis

CCN(Cc1cccc(S(=O)(=O)[O-])c1)c1ccc(C(=C2C=CC(=[N+](CC)Cc3cccc(S(=O)(=O)[O-])c3)C=C2)c2ccccc2S(=O)(=O)[O-])cc1.[Na+].[Na+] [FD&C Blue #1]
Necrosis Reduction Relative to Coontrol [12]: 66% | % necrosis (2 DAT) [13]: 46% | Necrosis Reduction Relative to Coontrol [13]: 41%

OCCCCO [1,4-butanediol]
decrease of necrosis (in words) (in vivo): significantly decreased necrosis

CC(C)CC(C)(O)C#CC(C)(O)CC(C)C (stereo not shown) [Surfynol 104A]
Necrosis Reduction Relative to Control [8]: 50% | Necrosis Reduction Relative to Control [9]: 8% | decrease of necrosis (in words) (in vivo): significantly decreased necrosis

O.O.O.O.O.O.O.O=S(=O)([O-])[O-].[Mg+2] [Magnesium sulfate, Magnesium sulfate heptahydrate]
Necrosis Reduction Relative to Control (in vivo): 0% and 6% | effect of metal salt on necrosis (in words) (in vivo): relatively little impact

COc1cc(S(=O)(=O)[O-])c(C)cc1N=Nc1c(O)ccc2cc(S(=O)(=O)[O-])ccc12.[Na+].[Na+] [FD&C Red #40]
Necrosis Reduction Relative to Coontrol [4]: 11% | Necrosis Reduction Relative to Coontrol [5]: 0%
